How the values were obtained:
[1] = tested on: HIV‐1; assay: Antiviral potency in cellular assays / HIV cell culture; type: cell-based; conditions: Human immunodeficiency virus 1, in Discussion
[2] = Pharmacokinetics of drug release from subdermal implants in Hu‐PBL mice (serum, HPLC); type: in vivo; conditions: end of study sera (Day 49 nanoformulations, Day 56 implants) vs EC90 in HIV cell culture
Protocol: Hu‐mice were anesthetized by i.p. injection of ketamine (80 mg/kg) and xylazine (12 mg/kg) in PBS (10 ml/kg) based on individual mouse body weight. After anesthetizing, approximately 1–2 cm square of the dorsal skin was shaved using an electric hair clipper, the area was cleaned with ethanol and disinfected with Betadine. Using a sterile disposable surgical blade, an incision of 4–5 mm was made through the skin. Gently, 2 cm × 3 cm subcutaneous pockets were created with forceps and implants loaded with Compound I and EFdA were co‐inserted at the same site. The opening was sutured using absorbable sutures followed by subcutaneous administration of 0.05 mg/kg buprenorphine. The animals were kept warm using the temperature‐controlled heating pads until they regained consciousness. Toxicity was evaluated by clinical observations, cage‐side observations (twice daily), and body weight (at least weekly). […]
The data were plotted as a concentration‐time curve using PRISM 9.0 (GraphPad Software Inc., La Jolla, CA). […] was calculated using Graph pad prism where EC50 of each compound was used along with Hill slope of 1. The predicted area under the curve (AUC) for drug concentration in blood serum against time (AUC predicted) was calculated based on the linear trapezoid method.[29] AUC was also calculated for PVLs and CD4+ T‐cells in infection experiments. […]

[3] = tested on: HIV‐1; conditions: cited from earlier work
[4] = tested on: HERG ion channel; parameters: method as in PMID 28167742; conditions: cited from earlier work

Compound	EC90 [1] [ng/mL]	EC90 ([1]; from EC50 with Hill slope of 1) [nM]	serum concentration fold above EC90 [2]	synergy of Compound I with EFdA ([3]; cell culture)	activity against wild‐type HIV‐1 strains and drug resistant variants ([3]; wild‐type, Y181C and K103N)	inhibition of the HERG ion channel [4]
N#Cc1ccc2c(Oc3ccc(F)cc3OCCn3ccc(=O)[nH]c3=O)cc(F)cc2c1 [Compound I]	10	25.2	approximately 100 fold	potent synergy	active in the nanomolar range	no inhibition
C#C[C@]1(CO)O[C@@H](n2cnc3c(N)nc(F)nc32)C[C@@H]1O [EFdA, 4′‐ethynyl‐2‐fluoro‐2′‐deoxyadenosine, reference compound]	5	17.1	~1100 fold			

— publication PMC8780078, “Long‐acting and extended‐release implant and nanoformulations with a synergistic antiretroviral two‐drug combination controls HIV‐1 infection in a humanized mouse model” (Bioengineering & Translational Medicine, 2021)
